Entries after “also recorded” stand apart in the source; their conditions may differ. Like-named read-outs stand apart in the source and are kept apart here.

Assay [1] deals with resident male rats. Briefly: Resident-Intruder Model of Stress and Aggression in Rats (neuroimaging). It is filed as in vivo, rat. The source says: Resident-Intruder Model of Stress and Aggression in Rats. Neuroimaging is used to assess the blockade of stress/arousal with test compound compared to control. The effect of AVN251-HCl on functional circuitry was examined using the imaging method for awake rats. Additional details of the assay are described in Ferris et al. (2008).
Male rats in the company of a female cage mate will piloerect in the presence of a male intruder. This piloerection is a sign of stress and aggressive intent and is associated with activation of stress/arousal circuits in the brain. […] Resident male rats from six male:female pairs were imaged while fully awake. During a single imaging session, these males were treated with vehicle or AVN251-HCl (5 mg/kg).
The total volume of brain activation for resident males confronted with their mate alone, mate plus intruder, and mate plus intruder in the presence of AVN251-HCl can be viewed as 3D models. While there appears to be a general decrease in BOLD signal in major regions with AVN251-HCl treatment, sexual motivation, as assessed by the presentation of a novel receptive female, was unaffected by V1a receptor blockade.
Stress circuit activation in response to an intruder male is assessed by obtaining brain scans viewed from a caudal/dorsal perspective as translucent shells. The localization of activated voxels is mapped as 3D volumes of activation, which are composed of 10 subjects each. Once fully registered and segmented, the statistical responses for each subject are averaged on a voxel-by-voxel basis. Those averaged voxels exceeding a 2.0% threshold are shown in their appropriate spatial location. Functional images are acquired on awake rats at 4.7 T.
The 3D volumes of activation are composed from results obtained with 10 subjects in each condition. […] Particular olfactory systems measured included the anterior olfactory nucleus, olfactory tubercle, piriform cortex, n. laterial olfactory tract, and entrorhinal cortex. Particular dopaminergic systems measured included the prelimbic cortex, accumbens, ventral pallidum, medial dorsal thalamus, and ventral tegmentum.
Awake rats were imaged when presented with their mate+an intruder, a highly stressful stimulus.

Assay [2] addresses T1, human V1a receptor (Homo sapiens, UniProt P37288).
T1 construct: host or cells: CHO cells
Put plainly: Human vasopressin V1a receptor binding assay (3H-AVP competition, hV1a cell line). The protocol: Human vasopression V1a receptor binding assay. A cell line expressing the human V1a receptor in CHO cells (henceforth referred to as the hV1a cell line) was obtained from Dr. Michael Brownstein, NIMH, Bethesda, Md., USA. The hV1a cDNA sequence is described by Thibonnier et al., Journal of Biological Chemistry, 269, 3304-3310 (1994), and the expression method was the same as described by Morel et al. (1992). The hV1a cell line was grown in alpha-MEM with 10% fetal bovine serum and 250 ug/ml G418 (Gibco, Grand Island, N.Y., USA). For competitive binding assay, hV1a cells were plated into 6-well culture plate at 1:10 dilution from a confluency flask, and maintained in culture for at least two days. Culture medium was then removed, cells were washed with 2 ml binding buffer (25 mM Hepes, 0.25% BSA, 1×DMEM, PH=7.0). To each well, 990 μl binding buffer containing 1 nM 3H-AVP was added, and followed by 10 μl series diluted Example compounds dissolved in DMSO. […] 100 nM cold AVP (Sigma) was used to assess non-specific binding. Cells were incubated for 45 minutes at 37° C., assay mixture was removed and each well was washed three times with PBS (pH=7.4). 1 ml 2% SDS was added per well and plates were let sit for 30 minutes. The whole content in a well was transferred to a scintillation vial. Each well was rinsed with 0.5 ml PBS which was then added to the corresponding vial. Scintillation fluid (Ecoscint, National Diagnostics, Atlanta, Ga.) was then added at 3 ml per vial. Samples were counted in a liquid scintillation counter (Beckman LS3801). IC50 values were calculated by Prism Curve fitting software.
All of the alkanedioic esters and amides exemplified in the foregoing examples dissolved in DMSO were tested in this assay. Binding curves were generated according to methods described by Thibonnier et al. (1994). [^3H]-AVP was added to the hV1a cell cultures followed by 10-fold dilutions of each test compound.

T1 sequence (P37288 whole entry): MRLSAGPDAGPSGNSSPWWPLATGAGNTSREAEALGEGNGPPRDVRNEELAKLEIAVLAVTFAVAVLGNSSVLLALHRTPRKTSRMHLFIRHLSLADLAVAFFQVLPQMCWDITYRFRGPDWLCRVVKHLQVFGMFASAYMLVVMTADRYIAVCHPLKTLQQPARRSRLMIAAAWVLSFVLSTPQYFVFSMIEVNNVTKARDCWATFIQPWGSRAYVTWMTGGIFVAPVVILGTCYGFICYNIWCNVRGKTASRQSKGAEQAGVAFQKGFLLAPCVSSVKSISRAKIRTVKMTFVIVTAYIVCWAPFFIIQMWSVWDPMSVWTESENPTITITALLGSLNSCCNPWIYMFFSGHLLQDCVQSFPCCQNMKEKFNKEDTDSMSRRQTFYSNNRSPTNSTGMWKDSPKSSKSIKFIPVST

In general, IC50 refers to the concentration at which inhibition is half-maximal. The term Ki denotes a measure of affinity in units of concentration, obtained from inhibition or displacement. Regarding `CN(Cc1cccc(C(F)(F)F)c1)C(=O)[C@@H](CC(=O)N1CCC(N2CCCCC2)CC1)N1C(=O)[C@@H](N2C(=O)OC[C@@H]2c2ccccc2)[C@H]1C=Cc1ccccc1` [Example 225, 2(R)-[[4-(Piperidinyl)piperidinyl]carbonylmethyl]-2-[3(S)-(4(S)-phenyloxazolidin-2-on-3-yl)-4(R)-(2-styryl)azetidin-2-on-1-yl]acetic acid N-methyl-N-(3-trifluoromethylbenzyl)amide], the “sexual motivation (reward circuit activation by novel receptive female)” value in assay [1] (awake resident male rats, 5 mg/kg, listed as AVN251, 5 mg/kg) is on record as “activates reward circuitry; also recorded: remained intact”. Besides, in assay [1] (awake resident male rats, mate plus intruder, 5 mg/kg), the “activation of stress/arousal circuit in response to male intruder (BOLD imaging)” value is “blocked the stress/arousal response”. Moreover, the “stress and aggressive motivation compared to controls” value in assay [1] (oral administration, intruder stimulus) is “blocked stress and aggressive motivation”. Also, the half-inhibitory concentration (IC50) in assay [2] (CHO cells expressing human V1a, 1 nM 3H-AVP, read-out: V1a Binding Affinity IC50) was 1.08 nM; in assay [2] (read-out: IC50, dose-dependent competitive binding curve, hV1a cell line, [3H]-AVP) it was 1.86 to 2.13 nM. Also, the Ki in assay [2] (CHO cells expressing human V1a, 1 nM 3H-AVP, read-out: V1a Ki) was 0.66 nM; in assay [2] (read-out: Ki, dose-dependent competitive binding curve, hV1a cell line, [3H]-AVP), 1.14 to 1.3 nM; in assay [2] (selectivity table, read-out: inhibition data (Ki, nM), Receptor V1a) it was 0.66 nM.

Source of the values: patent US9376424B2, “Methods for treating post traumatic stress disorder” (AZEVAN PHARMACEUTICALS, INC., priority 2010, dated 2016).
